Ends that are not written are not given here.

The experiment has as its system Healthy Individual's Peripheral Blood Neutrophil. The experiment in a line: Inhibition of NET formation in neutrophils pretreated with lactoferrin-derived peptide fragment; DNA concentration in culture supernatant (Picogreen). The experiment is classed as cell-based. The following applies: human neutrophils, pretreatment with peptide. The protocol: Effect of Inhibiting NET Formation Stimulation of Healthy Individual's Peripheral Blood Neutrophil by Pretreatment with Lactoferrin-derived Peptide Fragment
For each round of experiment, 15 ml to 20 ml of peripheral blood was collected from a healthy individual by using an EDTA-containing syringe (with a needle of 18 to 22 G). After collecting the blood, in a 15 ml conical tube charged with 3 ml of Mono-Poly Resolving Medium (Cat No. DSBN100, DS Pharma Biochemical Co., Ltd.), 3.5 ml of the whole blood was gently layered over a lower layer of Mono-Poly Resolving Medium. The resultant 15 ml conical tube was centrifuged with a swing centrifuge at room temperature (15 to 30° C.) at 400×g for 20 minutes, and the conical tube was then gently taken out. An uppermost brown plasma layer and a lymphocyte/monocyte layer thereunder were removed with an aspirator or the like. In addition, a transparent layer under the lymphocyte/monocyte layer was removed as much as possible. A pale pink layer under the transparent layer was taken out with a Pasteur pipette, and transferred, for washing neutrophils, to a test tube charged with phosphate buffered saline (PBS(−); 137 mM of sodium chloride, 2.7 mM of potassium chloride, 8.1 mM of disodium hydrogen phosphate dodecahydrate, and 1.47 mM of potassium dihydrogen phosphate). The test tube thus holding the neutrophils was centrifuged at room temperature (15 to 30° C.) at 200×g for 10 minutes. The test tube was taken out, and a supernatant was discarded. To the neutrophils held in the test tube, sterile water at 4° C. was added, and the resultant was allowed to stand still on ice for 30 seconds for hemolyzing erythrocytes mixed therein. After the hemolysis, 45 ml of PBS(−) was added thereto, and the resultant was centrifuged at 200×g for 10 minutes. […]
A culture supernatant was collected, centrifuged at 200×g for 10 minutes, and the thus obtained supernatant was transferred to a fresh microcentrifuge tube. The amount of DNA was measured by using Picogreen dsDNA assay reagent (P11496 Invitrogen) in accordance with the accompanying protocol.

With “SEQ ID NO: 6: Bovine lactoferricin; basic peptide obtained by pepsin hydrolysis of bovine lactoferrin, also prepared by PH Japan (MFKCRRWQWRMKKLGAPSITCVRRAF; ends and bridges not checked; cysteine pairing not given here; listed as Bos taurus)”, the “inhibition of the NET formation, dependence on amount (FIG. 3)” value is on record as “inhibited the NET formation in a volume-dependent manner”. Where the note is “FIG. 2”, the “inhibition of the NET (FIG. 2)” value is listed as “found to have the inhibiting effect”. With “SEQ ID NO: 7: Human lactoferricin, basic peptide prepared by PH Japan (GRRRRSVQWCAVSQPEATKCFQWQRNMRKVRGPPVSCIKRDSPIQCIQA; listed as Homo sapiens)”, the “inhibition of the NET formation, dependence on amount (FIG. 3)” value is “inhibited the NET formation in a volume-dependent manner”.

The values above are taken from patent US20170296629A1, “INHIBITOR OF EXTRACELLULAR TRAP FORMATION IN LEUKOCYTE” (KEIO UNIVERSITY, priority 2014, published 2017).
